Three compounds from US12454511B2, “6-methoxy-3,4-dihydro-1H-isoquinolin compounds” (Eli Lilly and Company, priority 2020, dated 2025) can be followed below.

Structures can show the parent of a compound that is named as a salt.

Test [1] concerns the target T1, human GIPR (Homo sapiens, UniProt P48546).
T1 construct: expressed in transfected cells; host or cells: HEK293 clonal cell line
T1 sequence (P48546 22-466): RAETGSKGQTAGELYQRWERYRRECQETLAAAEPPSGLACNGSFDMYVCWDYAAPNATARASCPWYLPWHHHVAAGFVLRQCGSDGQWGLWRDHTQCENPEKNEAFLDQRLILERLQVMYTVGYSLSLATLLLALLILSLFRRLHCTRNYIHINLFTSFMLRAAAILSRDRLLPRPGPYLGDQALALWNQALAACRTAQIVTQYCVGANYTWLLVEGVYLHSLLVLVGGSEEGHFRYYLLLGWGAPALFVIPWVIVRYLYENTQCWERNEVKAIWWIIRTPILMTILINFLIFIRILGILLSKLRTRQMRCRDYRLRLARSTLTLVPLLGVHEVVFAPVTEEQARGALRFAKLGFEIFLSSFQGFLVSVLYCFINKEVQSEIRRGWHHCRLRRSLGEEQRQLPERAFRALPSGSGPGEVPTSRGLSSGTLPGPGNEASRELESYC
The test is described as follows: Human GIP Receptor Potentiator Assay (cAMP formation, HTRF, in presence of EC20 dose of GIP(1-42)). It counts as cell-based. Conditions: HEK293 GIPR cell line intracellular cAMP response, with 25 pM GIP(1-42); for Emax: percent top of maximal response; for EC50: relative EC50, read-out: EC50 (nM) and SEM (n). The method, then: Human GIP Receptor Potentiator Assay
GIP Receptor (GIPR) functional activity is determined using cAMP formation in an HEK293 clonal cell line expressing human GIPR (NCBI accession number NP_000155). […] The hGIPR receptor expressing cells are treated with 25 pM of GIP(1-42) (Labcyte Echo direct dilution) and a dose response of test compound (10 point concentration-response curve in DMSO, 3-fold Labcyte Echo direct dilution, 384 well plate Corning Cat #3570) in DMEM (Gibco Cat #31053) supplemented with 1× GlutaMAX™ (Gibco Cat #35050), 0.1% bovine casein (Sigma C4765-10ML), 250 μM IBMX (3-Isobutyl-1-methylxanthine, Acros Cat #228420010) and 20 mM HEPES (Gibco Cat #15630) in a 20 μL assay volume (final DMSO concentration is 1.0%). After a 30 min incubation at 37° C., the resulting increase in intracellular cAMP is quantitatively determined using the CisBio cAMP Dynamic 2 HTRF Assay Kit (62AM4PEJ). Briefly, cAMP levels within the cell are detected by adding the cAMP-d2 conjugate in cell lysis buffer (10 μL) followed by the antibody anti-cAMP-Eu^3+-Cryptate, also in cell lysis buffer (10 μL). The resulting competitive assay is incubated for at least 60 min at room temperature, then detected using a PerkinElmer Envision® instrument with excitation at 320 nm and emission at 665 nm and 620 nm. Envision units (emission at 665 nm/620 nm*10,000) are inversely proportional to the amount of cAMP present and are converted to nM cAMP per well using a cAMP standard curve. The amount of cAMP generated (nM) in each well is converted to a percent of the maximal response observed. A relative EC50 value and percent top (Emax) are derived by non-linear regression analysis using the percent maximal response vs. the concentration of compound added, fitted to a four-parameter logistic equation. The EC50 and Emax data when the compounds of Examples 1 and 3 are tested in the cAMP assay described above are shown in Table 1.
A general note: Changes in cAMP serve as a functional read-out for many G protein-coupled receptors.

Test [2] deals with T2, human GLP-1R (Homo sapiens, UniProt P43220).
T2 construct: expressed in transfected cells; host or cells: HEK293 clonal cell line
The test is described as follows: Human GLP-1 Receptor Potentiator Assay (cAMP formation, HTRF, in presence of EC20 dose of oxyntomodulin). The class given is cell-based. Particulars: HEK293 GLP-1R cell line intracellular cAMP response, with 5 nM oxyntomodulin. The method, then:
Human GLP-1 Receptor Potentiator Assay
GLP-1 Receptor (GLP-1R) functional activity is determined using cAMP formation in an HEK293 clonal cell line expressing human GLP-1R (NCBI accession number NP_002053). […] After 60 min incubation at room temperature, the resulting increase in intracellular cAMP is quantitatively determined using a custom CisBio cAMP Hybrid HTRF Assay Kit (60MISZZZ). Briefly, cAMP levels within the cell are detected by adding the Dynamic 2 cAMP-d2 conjugate in cell lysis buffer (10 μL) followed by the HiRange antibody anti-cAMP-Eu^3+-Cryptate, also in cell lysis buffer ([…]). The resulting competitive assay is incubated for at least 60 min at RT, then detected using a PerkinElmer Envision® instrument with excitation at 320 nm and emission at 665 nm and 620 nm. […]

T2 sequence (P43220 24-463): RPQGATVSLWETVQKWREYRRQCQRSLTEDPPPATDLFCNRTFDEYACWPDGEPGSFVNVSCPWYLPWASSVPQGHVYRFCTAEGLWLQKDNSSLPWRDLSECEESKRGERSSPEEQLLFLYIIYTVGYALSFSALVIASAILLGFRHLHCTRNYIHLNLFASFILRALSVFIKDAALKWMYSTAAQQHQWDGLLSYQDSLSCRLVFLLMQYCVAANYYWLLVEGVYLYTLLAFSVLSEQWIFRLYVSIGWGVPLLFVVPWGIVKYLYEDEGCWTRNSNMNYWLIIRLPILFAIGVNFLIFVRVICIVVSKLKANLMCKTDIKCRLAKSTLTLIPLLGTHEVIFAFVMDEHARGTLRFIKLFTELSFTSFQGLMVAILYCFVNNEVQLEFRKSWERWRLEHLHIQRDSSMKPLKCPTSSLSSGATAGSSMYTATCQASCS

One may read the Emax as the maximal effect, on the per cent scale that the assay sets. One may read the EC50 as the concentration that produces a half-maximal response. With `COc1ccc2c(c1-c1cc(F)c(O)c(NCC(C)C)c1)CCN(C(C)c1ccc(C(C)C)cc1)[C@@H]2C` (single isomer, unassigned) [Example 1, dihydrochloride], in test [1], the maximal response (Emax) is 101 ± 7% and the concentration giving a half-maximal response (EC50) was 11.9 nM.

In the case of `COCC1Cc2c(ccc(OC)c2-c2ccc(O)c(C)c2)CN1Cc1ccc(C(C)C)cc1O` (single isomer, unassigned) [Example 2, 4-[2-[(2-Hydroxy-4-isopropyl-phenyl)methyl]-6-methoxy-3-(methoxymethyl)-3,4-dihydro-1H-isoquinolin-5-yl]-2-methyl-phenol; hydrochloride], in test [2] (percent top of maximal response), the Emax is 181 ± 35%. The EC50 in test [2] (relative EC50, read-out: EC50 (nM) and SEM (n)) turned out to be 15.7 nM.

Regarding `COc1ccc2c(c1-c1cc(C)c(O)c(F)c1)CCN(C(C)c1ccc(C(C)C)cc1)[C@@H]2C` (single isomer, unassigned) [Example 3, hydrochloride], in test [1], the Emax was found to be 91 ± 8% and the concentration giving a half-maximal response (EC50) was determined as 37.5 nM.
